In one test the target is T1, KHS (MAP4K5) (Homo sapiens, UniProt Q9Y4K4).
T1 construct: Recombinant proteins of kinase domains of various MAP4Ks were used
Briefly: In vitro kinase assay, recombinant kinase domain, MBP as substrate. The format is biochemical. The procedure:
(§1) GLK kinase activity was determined by measuring the rate of ADP production in the in vitro kinase reaction using ADP-GLO™ Kinase Assay kit. For the kinase reaction, recombinant proteins of the GLK kinase-domain (1 μg) were incubated with recombinant proteins of kinase-dead PKCθ (K409W; 0.15 μg) plus ATP (0.1 mM) or myelin basic protein (MBP) plus ATP (0.1 mM) in kinase buffer (40 mM Tris-HCl, pH7.5.20 mM MgCl2, 0.1 mg/ml BSA, 10 mM DTT and 0.1 mM Na3VO4) for 30 min at room temperature. We studied whether GLK inhibitors also suppress cancer cell migration. […] Moreover, both C1 (verteporfin) and C2 (alexidine dihydrochloride) treatments suppressed tumor growth in the xenograft mouse model using TC-1 lung cancer cells (FIG. 15). To study whether GLK deficiency results in a reduction of lung cancer metastasis, we used a metastatic Lewis lung carcinoma (LLC) mouse model by tail vein injection of luciferase-expressing LLC (LLC/luc) cells. We identified two GLK inhibitors (verteporfin and alexidine dihydrochloride)) using cell-based assays and in vitro kinase assays. […] The dimerization of Flag-tagged GLK protein and GFP-GLK fusion protein was indeed blocked by the C1 (verteporfin) treatment (FIG. 16C). We treated the LLC/luc cells-containing mice with the GLK inhibitor C1 (verteporfin) or C2 (alexidine dihydrochloride) by intravenous injection every 3 days for 30 days (FIG. 16D). The luciferase activity of LLC/luc cells in the mice was detected by In Vivo Imaging System. The excised lungs were weighed and subjected to H&E staining. The luciferase activity of LLC/luc cells in the lung of injected mice was reduced by the treatment of C1 (verteporfin) or C2 (alexidine dihydrochloride) (FIGS. 16E-F). […] Moreover, the interaction between GLK and IQGAP1 in the lung tissues were inhibited by the treatment of C1 (verteporfin) or C2 (alexidine dihydrochloride) (FIG. 16H, upper panel), and IQGAP1 phosphorylation was in the lung tissues were inhibited (FIG. 16H, lower panel). […] Inhibition of kinase activity of GLK (MAP4K3) or other MAP4Ks was determined by in vitro kinase assays using myelin basic protein (MBP) as a substrate. Recombinant proteins of kinase domains of various MAP4Ks were used. C1, verteporfin: C2, alexidine dihydrochloride.

The target of another test is T2, HGK (MAP4K4) (Homo sapiens, UniProt O95819).
T2 construct: Recombinant proteins of kinase domains of various MAP4Ks were used
The test is described as above. Format: biochemical. On the procedure: as §1

Another test has as its target T3, HPK1 (MAP4K1) (Homo sapiens, UniProt Q92918).
T3 construct: Recombinant proteins of kinase domains of various MAP4Ks were used
The description is as above. Format: biochemical. On the procedure:
as §1

The next test concerns TC-1 lung cancer cells. Briefly: TC-1 lung cancer xenograft model in wild-type mice. The note with it: i.v. C1 10 uM, C2 17 uM every 3 days for 15 days. The format is in vivo, mouse. On the procedure: (A) Murine TC-1 lung cancer cells were subcutaneously inoculated into the right flank of wild-type mice for establishing a TC-1 xenograft model. TC-1 cells inoculated mice were intravenously injected with PBS, C1 (verteporfin) (10 uM), or C2 (alexidine dihydrochloride) (17 uM) every 3 days for 15 days. (B) Photographs of excised TC-1 lung cancers after receiving PBS, C1 (verteporfin) (10 uM), or C2 (17 uM) treatment. (C) The growth (mean tumor volume) of tumor was measured for 15 days. The TC-1 tumor size progression as a function of time post-administration with C1 or C2. N.D., not detectable. C1 denotes verteporfin; C2 denotes alexidine dihydrochloride.

Test [1] has as its system GLK-induced NF-κB-luciferase activity. Briefly: NF-κB-driven luciferase reporter assay in CHO-GLK-Luc cells. The format is cell-based. Particulars: stable GLK-transfected CHO-K1 cells. The procedure: (A) Luciferase activity of NF-κB-driven reporter assays in stable GLK-transfected CHO-K1 cells that were treated with or without the GLK inhibitor C1 (verteporfin) under the indicated concentration. The fold changes are presented relative to the value of vector control. (B) Recombinant proteins of GLK kinase domain plus recombinant proteins of GST-tagged kinase-dead PKCθ (K409W) were subjected to in vitro kinase assays in the presence or absence of the GLK inhibitor C1 (verteporfin). Means±SD of are shown. *, P value<0.05; **, P value<0.01 (two-tailed Student's t-test). (C) The AhR-RORγt complex was inhibited by the GLK inhibitor. Confocal microscopy of proximity ligation assays (PLA) for the interaction between AhR and either RORγt or phospho-RORγt (S489) in peripheral blood T cells treated with C1 (verteporfin) (5 μM) for 30 min. The T cells were freshly isolated from 4 SLE patients and 1 RA patients. C1 denotes verteporfin; C2 denotes alexidine dihydrochloride. (D) Quantification of the PLA signals of (C). (E) FRET assays of HEK293T cells co-transfected with CFP-AhR, YFP-RORγt, and IKKβ plasmids.
Cell-based high-throughput screening was conducted against a representative library of 100,000 molecules at ˜10 μM. CHO-GLK-Luc cells expressing GLK and NF-κB-luciferase reporter were used. […] This high-throughput screening campaign was successful with a determined Z′ factor of 0.57˜0.60. […]

Consider two compounds from patent US11360080B2, “AhR-ROR-γt complex as a biomarker and therapeutic target for autoimmune disease and IL-17A-associated disease” (NATIONAL HEALTH RESEARCH INSTITUTES, priority 2018, dated 2022).

Where a name gives a salt, the structure may show the parent alone.

T1 sequence (Q9Y4K4 20-277 limits assumed, species assumed): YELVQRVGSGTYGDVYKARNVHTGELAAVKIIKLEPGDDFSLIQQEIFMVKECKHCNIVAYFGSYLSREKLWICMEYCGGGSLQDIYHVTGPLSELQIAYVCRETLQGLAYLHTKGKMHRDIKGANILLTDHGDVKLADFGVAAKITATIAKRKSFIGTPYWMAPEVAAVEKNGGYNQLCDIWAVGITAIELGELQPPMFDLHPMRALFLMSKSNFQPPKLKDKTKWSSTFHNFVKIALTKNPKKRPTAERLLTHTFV
T2 sequence (O95819 25-289 limits assumed, species assumed): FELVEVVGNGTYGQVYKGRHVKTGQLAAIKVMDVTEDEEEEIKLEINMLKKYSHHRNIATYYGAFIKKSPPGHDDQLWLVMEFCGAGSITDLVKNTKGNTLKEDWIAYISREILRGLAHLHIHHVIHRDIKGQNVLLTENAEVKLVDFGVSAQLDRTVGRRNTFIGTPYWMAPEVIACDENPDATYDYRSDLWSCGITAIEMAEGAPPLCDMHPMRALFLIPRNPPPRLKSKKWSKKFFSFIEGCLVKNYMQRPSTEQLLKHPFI
T3 sequence (Q92918 17-274 limits assumed, species assumed): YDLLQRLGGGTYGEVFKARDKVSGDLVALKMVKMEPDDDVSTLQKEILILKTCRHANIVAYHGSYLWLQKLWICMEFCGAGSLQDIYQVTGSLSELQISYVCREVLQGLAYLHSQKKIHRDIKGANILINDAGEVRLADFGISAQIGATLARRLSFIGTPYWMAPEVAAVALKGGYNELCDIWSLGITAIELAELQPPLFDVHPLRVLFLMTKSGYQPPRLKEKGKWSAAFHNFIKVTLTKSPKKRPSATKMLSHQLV

Regarding `C=Cc1c(C)c2cc3nc(cc4[nH]c(cc5nc(cc1[nH]2)C(C)=C5CCC(=O)O)c(CCC(=O)OC)c4C)[C@@]1(C)C3=CC=C(C(=O)OC)[C@H]1C(=O)OC` [C1, verteporfin], the IC50 on KHS (MAP4K5) was 43.9 nM; on HGK (MAP4K4), 4.92 nM; at HPK1 (MAP4K1), 7.91 nM. Also, the “tumor growth (mean tumor volume)” value in the test with TC-1 lung cancer cells is “suppressed”. Moreover, the “GLK signaling in cell lines (luciferase reporter)” value in test [1] is “efficiently inhibited”.
For `CCCCC(CC)CNC(=N)NC(=N)NCCCCCCNC(=N)NC(=N)NCC(CC)CCCC` (stereo not shown) [C2, alexidine dihydrochloride] the same measures were 18.3 nM, 21.8 nM, 6.14 nM, “suppressed” and “efficiently inhibited”.
